In PMC5673977, “Transport Deficiency Is the Molecular Basis of Candida albicans Resistance to Antifungal Oligopeptides” (Frontiers in Microbiology, 2017):
Converted amounts (≈) assume the structure as drawn. Like-named read-outs stand apart in the source and are kept apart here. Where a SMILES comes first, the peptide text is derived from it. [ ]: non-standard residue; d: D form. The star is where a group is joined. Fumaryl(OMe) = COC(=O)/C=C/C(=O)*; Dap = NC[C@H](N)C(=O)O

How the values were obtained:
Assay type in all cases: cell-based, Candida albicans
[1] = tested on: C. albicans SC 5314; experiment: Disc diffusion method; conditions: YNB-AS agar, 10 μg of peptide on a disc (10 μL of 1 mg mL^-1), 48 h, 30°C
Protocol: Candida albicans cells, apparently resistant to FMDP-peptides, were isolated from the individual colonies formed on the surface of YNB-SG agar medium containing FMDP-peptide, 10 μg mL^-1 or within the growth inhibitory zones around the paper discs saturated with 10 μL of the FMDP-peptide solution, 1 mg mL^-1. In both versions, the agar surface was inoculated with 10^5 cells from the overnight culture in YPD medium, washed three times with sterile water, suspended in 0.2 mL of sterile water and the cell suspension was spread on the whole surface with a sterile glass rod. Plates were incubated for 48 h at 30°C and isolated colonies were picked with a platinum loop.
Growth inhibitory activity of FMDP-oligopeptides against C. albicans SC 5314 was also determined by the disc diffusion method. […] Cells grown in these colonies were collected, re-grown in YNB-AS and tested for sensitivity to FMDP-oligopeptides.
FIGURE 3 Disc diffusion activity determination of FMDP-oligopeptides. YNB-AS agar medium, 10 μg of each peptide applied on a disc. (A) F2; (B) F3; (C) F6; (D) F7; (E) F11.

[2] = tested on: C. albicans opt1–opt5Δ; experiment: Initial peptide uptake rate; conditions: 50 mM potassium phosphate buffer (pH 5.0 or 6.5) + 1% glucose, 30°C, 100 μM peptide, TNBS A420, slope 0- to 10-min
Procedure, shortened: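 Depletion assay: cells in phosphate buffer pH 5.0 or 6.5 + 1% glucose, A660 ≅ 1.0, 30°C; 100 μM oligopeptide final; filtrate sampled every 5 min; TNBS derivatization 37°C 30 min, A420 vs standard curve. Rate = slope of linear 0–10 min uptake, nmol per mg dry weight.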

[3] = tested on: C. albicans opt1–opt5Δ ptr2Δ ptr22Δ; conditions: turbidity 531 nm, at least 80% decrease
Protocol: (§1) Strains were grown at 30°C in YPD medium (1% yeast extract, 2% peptone, and 2% glucose) and stored on YPD plates containing 2% agar. Susceptibility testing was performed in YPD and other three media: (a) RPMI-1640 w/o sodium bicarbonate, with L-glutamine + 2% glucose + 3.45% MOPS, pH adjusted to 7.0; (b) YNB-AS—Yeast Nitrogen Base w/o amino acids (contains ammonium sulfate 5 g L^-1) + 2% glucose; (c) YNB-SG—Yeast Nitrogen Base w/o amino acids and ammonium sulfate + 2% glucose + 0.2 g L^-1 sodium glutamate. In their solid version, used for the mutant generation and isolation, YNB-AS and YNB-SG contained 2% agar.
(§2) The in vitro growth inhibitory activity of antifungals was quantified by determination of minimal inhibitory concentration (MIC) values by the serial twofold dilution method, using the 96-well microtiter plates in three media: buffered RPMI-1640, YNB-AS, and YNB-SG. Conditions of the RPMI-1640-based assay were the same as outlined in the CLSI recommendations ([Clinical Laboratory Standards Institute, 2008]), except for the end-point readout that was done by spectrophotometric determination of cell density at 531 nm. Turbidity in individual wells was measured with a microplate reader (Victor^3; Perkin Elmer). MIC was defined as the lowest drug concentration that gave at least an 80% decrease in turbidity, relative to that of the drug-free growth control.
(§3) The 96-well microtiter plates were also used for determination of in vitro growth inhibitory activity in YPD and YNB-based media. Individual wells were inoculated with 5 × 10^3 cfu mL^-1 of C. albicans cells from the overnight culture in YPD medium. The inoculated plates were incubated 37°C for 24 h and then turbidity was measured with a microplate reader at 531 nm, as described above for the RPMI-1640-based assay.

[4] = tested on: C. albicans opt5Δ; conditions: turbidity 531 nm, at least 80% decrease
Protocol: as §1, §2, §3

[5] = tested on: C. albicans SC5314; conditions: for Increase of MICs in presence of Ala-Ala-Ala-Ala: YNB-SG + Ala-Ala-Ala-Ala 1 g L^-1; for Effect of supplementation with Ala-Ala or Ala-Ala-Ala on activity: YNB-based media + Ala-Ala or Ala-Ala-Ala, 1 g L^-1, 'similar effect' = complete elimination of activity as with Bacto Peptone; for MIC in YNB-AS, times higher than in YNB-SG: wild type SC5314
Protocol: as §1, §2, §3

[6] = tested on: C. albicans opt2Δ opt3Δ; conditions: turbidity 531 nm, at least 80% decrease
Protocol: as §1, §2, §3

[7] = tested on: C. albicans ptr2Δ ptr22Δ; conditions: turbidity 531 nm, at least 80% decrease
Protocol: as §1, §2, §3

[8] = tested on: C. albicans opt4Δ; conditions: turbidity 531 nm, at least 80% decrease
Protocol: as §1, §2, §3

[9] = tested on: C. albicans opt1Δ; conditions: turbidity 531 nm, at least 80% decrease
Protocol: as §1, §2, §3

[10] = tested on: C. albicans opt1–opt5Δ; conditions: turbidity 531 nm, at least 80% decrease
Protocol: as §1, §2, §3

[11] = tested on: C. albicans isolates NF1-3 and LNF1-3; experiment: Initial peptide uptake rate by isolates resistant to F2/F3; conditions: all six isolates NF1-3, LNF1-3; Figure 4
Protocol: Yeast cells grown exponentially in the YNB-SG medium were harvested by centrifugation (3000 ×g, 5 min), washed with 50 mM potassium phosphate buffer (pH 5.0 or 6.5), and suspended in the same buffer containing 1% glucose, to a final cell density corresponding to A660 ≅ 1.0. The cell suspension was incubated at 30°C. After 10 min, an oligopeptide solution was added, to give a final concentration of 100 μM. At that moment and at 5 min intervals thereafter, 2 mL samples of the cell suspension were withdrawn, immediately filtered through the Whatman GF/A filters and the filtrates were used to determine the residual peptide concentration. Then, the 1 mL portions of the filtrates were taken and combined with 1.25 mL aliquots of a solution containing 4% Na2B4O7 × 10 H2O and 0.8 mg mL^-1 of 2,4,6-trinitrobenzenesulfonate. The reaction was carried out at 37°C for 30 min. The A420 values were measured and the peptide concentration was read from the appropriate standard curve. Data were plotted as nanomoles of an oligopeptide, taken up by 1 mg (dry weight) of cells versus time. The initial uptake velocities were determined from the slopes of the linear part of the curves, in the 0- to 10-min region.
It is therefore clear that the diminished sensitivity of all six isolates to F2 and F3 was due to the reduced uptake, most likely by permease(s) of the PTR system.

[12] = RPMI-1640 medium, MOPS pH 7.0, CLSI conditions
[13] = SC 5314, RPMI-1640 medium, MOPS pH 7.0, CLSI conditions, turbidity 531 nm, at least 80% decrease
[14] = SC 5314, YNB + L-Gln (0.3 g L^-1) pH 5.0
[15] = SC 5314, YNB + L-Gln (0.3 g L^-1) pH 7.0
[16] = SC 5314, YNB + amino acid mixture (composition as in RPMI-1640)
[17] = SC 5314, YNB-AS medium, 5 × 10^3 cfu mL^-1, 37°C, 24 h, turbidity 531 nm, at least 80% decrease
[18] = SC 5314, YNB-SG medium, 5 × 10^3 cfu mL^-1, 37°C, 24 h, turbidity 531 nm, at least 80% decrease
[19] = SC 5314, growth medium YNB-SG (Table 6)

Structure (SMILES)	Appearance of growth inhibitory zone [1]	MIC [3, 12] [µg/mL]	MIC ([3]; YNB-AS medium, 37°C, 24 h) [µg/mL]	MIC [4, 12] [µg/mL]	MIC ([4]; YNB-AS medium, 37°C, 24 h) [µg/mL]	MIC [5, 13] [µg/mL]	MIC [5, 14] [µg/mL]	MIC [5, 15] [µg/mL]	MIC [5, 16] [µg/mL]	MIC [5, 17] [µg/mL]	MIC [5, 19] [µg/mL]	Increase of MICs in presence of Ala-Ala-Ala-Ala [5]	Effect of supplementation with Ala-Ala or Ala-Ala-Ala on activity [5]	MIC in YNB-AS, times higher than in YNB-SG [5]	MIC [6, 12] [µg/mL]	MIC [7, 12] [µg/mL]	MIC ([7]; YNB-AS medium, 37°C, 24 h) [µg/mL]	MIC [8, 12] [µg/mL]	MIC ([8]; YNB-AS medium, 37°C, 24 h) [µg/mL]	MIC [9, 12] [µg/mL]	other results
COC(=O)/C=C/C(=O)NC[C@H](NC(=O)[C@H](CCSC)NC(=O)[C@@H](NC(=O)[C@@H]1CCCN1C(=O)[C@H](CC(C)C)NC(=O)[C@@H](N)CCCCN)C(C)C)C(=O)O [Peptide F6, Lys-Leu-Pro-Val-Met-FMDP] (H-KLPVM[Dap](Fumaryl(OMe))-OH; N-terminus and C-terminus assumed)	clear	>128	>128	>128	8 (≈ 10.2 µM)	>128	4.0	128	>128	4 (≈ 5.1 µM)	0.5 (≈ 0.637 µM)	16- to 64 fold	no effect	8–16 times	>128	>128	4 (≈ 5.1 µM)	>128	8 (≈ 10.2 µM)	>128	Uptake rate ± SD [2]: 0.22 ± 0.04 nmol min^-1 (mg dry weight)^-1; MIC ([3]; YNB-SG medium, 37°C, 24 h): 64 µg/mL (≈ 81.5 µM); MIC ([4]; YNB-SG medium, 37°C, 24 h): 4 µg/mL (≈ 5.1 µM); MIC ([5]; SC5314, YNB-SG medium (Table 8)): 4 µg/mL (≈ 5.1 µM); MIC [5, 18]: 0.5 µg/mL (≈ 0.637 µM); MIC ([6]; YNB-AS medium, 37°C, 24 h): 32 µg/mL (≈ 40.8 µM); MIC ([6]; YNB-SG medium, 37°C, 24 h): 32 µg/mL (≈ 40.8 µM); MIC ([7]; YNB-SG medium, 37°C, 24 h): 0.5 µg/mL (≈ 0.637 µM); MIC ([8]; YNB-SG medium, 37°C, 24 h): 8 µg/mL (≈ 10.2 µM); MIC ([9]; YNB-AS medium, 37°C, 24 h): 8 µg/mL (≈ 10.2 µM); MIC ([9]; YNB-SG medium, 37°C, 24 h): 4 µg/mL (≈ 5.1 µM); MIC [10, 12]: >128 µg/mL; MIC ([10]; YNB-AS medium, 37°C, 24 h): >128 µg/mL; MIC ([10]; YNB-SG medium, 37°C, 24 h): 64 µg/mL (≈ 81.5 µM); Initial uptake rate relative to wild type SC5314 cells [11]: nearly the same or even somewhat higher
COC(=O)/C=C/C(=O)NC[C@H](N)C(=O)N[C@@H](CCCNC(=N)N)C(=O)N[C@@H](CCCCN)C(=O)N[C@@H](CCCCN)C(=O)N[C@@H](Cc1c[nH]c2ccccc12)C(=O)N[C@@H](Cc1ccccc1)C(=O)N[C@@H](Cc1c[nH]c2ccccc12)C(=O)O [Peptide F7, FMDP-Arg-Lys-Lys-Trp-Phe-Trp] (H-[Dap](Fumaryl(OMe))RKKWFW-OH; N-terminus and C-terminus assumed)	clear	>128	>128	>128	32 (≈ 27.9 µM)	>128	8.0	64	>128	16 (≈ 13.9 µM)	0.5 (≈ 0.435 µM)	16- to 64 fold	no effect	8–16 times	>128	>128	16 (≈ 13.9 µM)	>128	32 (≈ 27.9 µM)	>128	Uptake rate ± SD [2]: 0.32 ± 0.07 nmol min^-1 (mg dry weight)^-1; MIC ([3]; YNB-SG medium, 37°C, 24 h): 64 µg/mL (≈ 55.7 µM); MIC ([4]; YNB-SG medium, 37°C, 24 h): 2 µg/mL (≈ 1.74 µM); MIC [5, 18]: 0.5 µg/mL (≈ 0.435 µM); MIC ([6]; YNB-SG medium, 37°C, 24 h): 32 µg/mL (≈ 27.9 µM); MIC ([7]; YNB-SG medium, 37°C, 24 h): 0.5 µg/mL (≈ 0.435 µM); MIC ([8]; YNB-SG medium, 37°C, 24 h): 16 µg/mL (≈ 13.9 µM); MIC ([9]; YNB-AS medium, 37°C, 24 h): 32 µg/mL (≈ 27.9 µM); MIC ([9]; YNB-SG medium, 37°C, 24 h): 8 µg/mL (≈ 6.97 µM); MIC [10, 12]: >128 µg/mL; MIC ([10]; YNB-AS medium, 37°C, 24 h): >128 µg/mL; MIC ([10]; YNB-SG medium, 37°C, 24 h): 64 µg/mL (≈ 55.7 µM)
COC(=O)/C=C/C(=O)NC[C@H](N)C(=O)N[C@@H](CCCCN)C(=O)N[C@@H](CCCCN)C(=O)N[C@H](C(=O)N[C@H](C(=O)N[C@@H](Cc1ccccc1)C(=O)N[C@@H](Cc1c[nH]c2ccccc12)C(=O)N[C@H](C(=O)N[C@@H](CCCCN)C(=O)N[C@@H](Cc1ccccc1)C(=O)N[C@@H](CCCCN)C(=O)O)C(C)C)C(C)C)C(C)C [Peptide F11, FMDP-Lys-Lys-Val-Val-Phe-Trp-Val-Lys-Phe-Lys] (H-[Dap](Fumaryl(OMe))KKVVFWVKFK-OH; N-terminus assumed)	clear	>128	>128	>128	16 (≈ 10.6 µM)	>128	16	>128	>128	16 (≈ 10.6 µM)	1.0 (≈ 0.664 µM)	16- to 64 fold	no effect	8–16 times	>128	>128	16 (≈ 10.6 µM)	>128	32 (≈ 21.2 µM)	>128	Effect of N-acetyl-D-glucosamine supplementation on growth inhibitory activity ([5]; YNB-SG medium + N-acetyl-D-glucosamine, 10 mM): complete elimination of growth inhibitory activity; MIC ([6]; YNB-AS medium, 37°C, 24 h): 128 µg/mL (≈ 84.9 µM); MIC ([9]; YNB-AS medium, 37°C, 24 h): 32 µg/mL (≈ 21.2 µM); MIC [10, 12]: >128 µg/mL; MIC ([10]; YNB-AS medium, 37°C, 24 h): >128 µg/mL
